Measurements reported in publication PMC11359702, “Synthesis and Biochemical Evaluation of Ethanoanthracenes and Related Compounds: Antiproliferative and Pro-Apoptotic Effects in Chronic Lymphocytic Leukemia (CLL)” (Pharmaceuticals, 2024).
Where two headings read alike, the source gives them in different places.

Assays:
HG-3 cells [1] = assay: alamarBlue cell viability assay; conditions: HG-3, 24 h; for IC50: read-out: HG-3 IC50; for viability at 10 µM: read-out: cell viability, HG-3, 10 µM, 24 h, vehicle = 100%; for viability at 1 µM: read-out: cell viability, HG-3, 1 µM, 24 h, vehicle = 100%
[2] = system: HG-3 and PGA-1 cell lines; assay: alamarBlue cell viability assay, mean of both CLL cell lines; type: cell-based, human; conditions: mean of HG-3 and PGA-1
PGA-1 cells [3] = assay: alamarBlue cell viability assay; conditions: for IC50: read-out: PGA-1 IC50; for viability at 10 µM: read-out: cell viability
[4] = HPLC stability study in phosphate buffers; type: physicochemical; conditions: for recovery at 24 h: over the pH range studied (pH 4, 7.4 and 9); for remaining at 24 h, 14.6 µg/mL / half-life at 14.6 µg/mL: phosphate buffer, 37 °C; for remaining at 24 h, 14.6 µg/mL: HPLC
Experimental: A preliminary stability study was carried out on selected chalcones, maleic anhydride and maleimide adducts at acidic, neutral and basic conditions (pH 4, 7.4 and 9) using HPLC to determine suitability for further preclinical investigations. […] A possible degradation route for the maleimide 23n could be through the hydrolysis of the cyclic imide of the maleimide ring, leading to the resultant amic acid product.
All samples were analyzed using acetonitrile–water (80:20%, 70:30%, 60:40% isocratic) as the mobile phase over 10 min and a flow rate of 1 mL/min. Stock solutions were prepared by dissolving 5 mg of compounds in a mobile phase ([(acetonitrile (80%): water (20%)], 10 mL). Anhydride 22h was not detected at its retention time of 5.2 min at pH 9.0. The data presented represent the results of single experiments.
The HPLC stability studies for compounds 21a, 21i, 22h, 23a, 23g, 23n, 24a, 24h, 26a and 26n were performed using a Symmetry® column (C18, 5 µm, 4.6 × 150 mm), a Waters 2487 Dual Wavelength Absorbance detector, and an HPLC pump: Waters 1525 binary and Autosampler; Waters 717 plus (Waters Corporation, Milford, MA, USA), mobile phase [(acetonitrile (80%) and water (20%)] with a typical run time of 10 min and a flow rate of 1 mL/min with detection at 254 nm. The selected compounds 21a, 21i, 22h, 23a, 23g, 23n, 24a, 24h, 26a and 26n (5 mg) in the mobile phase (10 mL) provided the stock solution for the analysis. The phosphate buffers were prepared at pH values of 4, 7.4 and 9, as described in the British Pharmacopoeia monograph 2019. The stock solution (30 µL) was added to the appropriate buffer (1 mL) and retained at 37 °C. Samples were then analyzed over the following 24-h period at selected time intervals (t = 0 min, 5 min, 30 min, 60 min, 90 min, 120 min and 24 h).

HG-3 cells [5] = system: HG-3 cells
PGA-1 cells [6] = conditions: 10 µM
[7] = pH 4 buffer, read-out: % remaining 24 h pH 4
[8] = pH 4 buffer, read-out: Half-life pH 4 (converted)
[9] = pH 7.4 buffer, read-out: % remaining 24 h pH 7.4
[10] = pH 7.4 buffer, read-out: Half-life pH 7.4 (converted)
[11] = pH 9 buffer, read-out: % remaining 24 h pH 9
[12] = pH 9 buffer, read-out: Half-life pH 9 (converted)

Question: Which IC50 (HG-3 cells [1]) does the source give for `COc1ccc(C(=O)/C=C/C23c4ccccc4C(c4ccccc42)C2C(=O)NC(=O)C23)cc1` (stereo not shown) [Compound 23i, (E)-9-(3-(4-Methoxyphenyl)-3-oxoprop-1-en-1-yl)-9,10-dihydro-9,10-[3,4]epipyrroloanthracene-12,14-dione] here?
Answer: 10.3 µM

Question: What about the IC50 [2] of the same compound?
Answer: 11.4 µM

Question: And the IC50 (PGA-1 cells [3]; PGA-1, 24 h)?
Answer: 12.6 µM

Question: Which results are given for `O=C1OC(=O)C2C1C1c3ccccc3C2(/C=C/[N+](=O)[O-])c2ccccc21` (stereo not shown) [Compound 20h]?
Answer: viability at 10 µM (HG-3 cells [1]; Homo sapiens): 31%; viability at 10 µM (PGA-1 cells [3]; Homo sapiens, 24 h): 2%

Question: Which viability at 1 µM (HG-3 cells [1]; Homo sapiens) does the source give for `O=C(/C=C/c1c2ccccc2cc2ccccc12)c1ccccn1` [Compound 21n, (E)-3-(anthracen-9-yl)-1-(pyridin-2-yl)prop-2-en-1-one] here?
Answer: 50 to 61%

Question: And the viability at 10 µM (HG-3 cells [1]; Homo sapiens)?
Answer: 37 to 54%

Question: And the viability at 10 µM (PGA-1 cells [3]; Homo sapiens, 24 h)?
Answer: 47%

Question: Which “recovery at 24 h” value [4] does the source give for `O=C(/C=C/c1c2ccccc2cc2ccccc12)c1ccc(Br)cc1` [Compound 21a, (E)-3-(anthracen-9-yl)-1-(4-bromophenyl)prop-2-en-1-one] here?
Answer: < 50%

Question: What about the remaining at 24 h, 14.6 µg/mL [4, 7] of the same compound?
Answer: 46.3%

Question: And the half-life at 14.6 µg/mL [4, 8]?
Answer: 3.25 h

Question: And the remaining at 24 h, 14.6 µg/mL [4, 9]?
Answer: 38.6%

Question: What about the half-life at 14.6 µg/mL [4, 10] of the same compound?
Answer: 2 h

Question: What about the remaining at 24 h, 14.6 µg/mL [4, 11] of the same compound?
Answer: 38.6%

Question: What about the half-life at 14.6 µg/mL [4, 12] of the same compound?
Answer: 1.5 h

Question: Which IC50 ([2]; Homo sapiens, CLL cell) does the source give for `COc1c2ccccc2c(/C=C/[N+](=O)[O-])c2ccccc12` [Compound 18b, reference compound] here?
Answer: 0.73 µM

Question: For `COc1cc(C(=O)/C=C/C23c4ccccc4C(c4ccccc42)C2C(=O)NC(=O)C23)cc(OC)c1OC` (stereo not shown) [Compound 23k, (E)-9-(3-Oxo-3-(3,4,5-trimethoxyphenyl)prop-1-en-1-yl)-9,10-dihydro-9,10-[3,4] epipyrroloanthracene-12,14-dione], which IC50 (HG-3 cells [1]) is on record?
Answer: 4.9 µM

Question: What about the IC50 [2] of the same compound?
Answer: 5.19 µM

Question: What about the IC50 (PGA-1 cells [3]; PGA-1, 24 h) of the same compound?
Answer: 5.38 µM

Question: What does the source list for `COc1ccc(C(=O)/C=C/c2c3ccccc3cc3ccccc23)cc1` [Compound 21i, (E)-3-(anthracen-9-yl)-1-(4-methoxyphenyl)prop-2-en-1-one]?
Answer: recovery at 24 h [4]: < 50%; remaining at 24 h, 14.6 µg/mL [4, 7]: 27.9%; half-life at 14.6 µg/mL [4, 8]: ~11.5 h; remaining at 24 h, 14.6 µg/mL [4, 9]: 26.6%; half-life at 14.6 µg/mL [4, 10]: 3.85 h; remaining at 24 h, 14.6 µg/mL [4, 11]: 42.1%; half-life at 14.6 µg/mL [4, 12]: ~11.5 h; viability at 10 µM (PGA-1 cells [3]; Homo sapiens, 24 h): 49%

Question: With `O=C(C=CC12c3ccccc3C(c3ccccc31)C1C(=O)N(c3ccccc3)C(=O)C12)c1ccccn1` (stereo not shown) [Compound 24n, 9-(E)-3-Oxo-3-(pyridin-2-yl)prop-1-en-1-yl)-13-phenyl-9,10-dihydro-9,10-[3,4]epipyrroloanthracene-12,14-dione] as the compound, how does the cell viability (HG-3 cells [5]; 1 µM) read?
Answer: 48%

Question: And the cell viability (HG-3 cells [5]; 10 µM)?
Answer: 4%

Question: With `O=C(C=CC12c3ccccc3C(c3ccccc31)C1C(=O)N(c3ccc(Cl)cc3)C(=O)C12)c1ccc(Br)cc1` (stereo not shown) [Compound 25a, (E)-9-(3-(4-Bromophenyl)-3-oxoprop-1-en-1-yl)-13-(4-chlorophenyl)-9,10-dihydro-9,10-[3,4]epipyrroloanthracene-12,14-dione] as the compound, how does the cell viability (PGA-1 cells [6]) read?
Answer: 33%

Question: For `O=C(/C=C/C12c3ccccc3C(c3ccccc31)C1C(=O)N(c3ccc(Cl)cc3)C(=O)C12)c1ccc(F)cc1` (stereo not shown) [Compound 25h, (E)-13-(4-Chlorophenyl)-9-(3-(4-fluorophenyl)-3-oxoprop-1-en-1-yl)-9,10-dihydro-9,10[3,4]epipyrroloanthracene-12,14-dione], which cell viability (HG-3 cells [5]; 10 µM) is on record?
Answer: 35%

Question: With `O=C(c1ccccc1)c1ccc(N2C(=O)C3C4c5ccccc5C(/C=C/C(=O)c5cccs5)(c5ccccc54)C3C2=O)cc1` (stereo not shown) [Compound 26q, (E)-13-(4-Benzoylphenyl)-9-(3-oxo-3-(thiophen-2-yl)prop-1-en-1-yl)-9,10-dihydro-9,10-[3,4]epipyrroloanthracene-12,14-dione] as the compound, how does the cell viability (HG-3 cells [5]; 10 µM) read?
Answer: 56%

Question: With `O=C1C2C3c4ccccc4C(C=C[N+](=O)[O-])(c4ccccc43)C2C(=O)N1c1ccc(Cl)cc1` (stereo not shown) [Compound 20b] as the compound, how does the IC50 (HG-3 cells [1]; Homo sapiens) read?
Answer: 0.85 µM

Question: What about the viability at 10 µM (HG-3 cells [1]; Homo sapiens) of the same compound?
Answer: 8%

Question: What about the IC50 ([2]; Homo sapiens, CLL cell) of the same compound?
Answer: 0.76 µM

Question: And the IC50 (PGA-1 cells [3]; Homo sapiens, 24 h)?
Answer: 0.66 µM

Question: And the viability at 10 µM (PGA-1 cells [3]; Homo sapiens, 24 h)?
Answer: 3%

Question: What does the source list for `O=C(/C=C/c1c2ccccc2cc2ccccc12)c1ccc(Cl)cc1Cl` [Compound 21d, (E)-3-(anthracen-9-yl)-1-(2,4-dichlorophenyl)prop-2-en-1-one]?
Answer: viability at 1 µM (HG-3 cells [1]; Homo sapiens): 50 to 61%; viability at 10 µM (HG-3 cells [1]; Homo sapiens): 37 to 54%; viability at 10 µM (PGA-1 cells [3]; Homo sapiens, 24 h): 50%
